Laboratory results reported in ChEMBL document CHEMBL3046801, “Synthesis of 2-R1-2-(4-(2-fluoroethoxy)benzamido)acetate as potential PET imaging agents” (Med Chem Res, 2012).

Assays:
Liver [1] = experiment: Biodistribution in tumor bearing Mus musculus KM (mouse) liver at 3.7 MBq, iv measured at 120 min by microPET imaging analysis; type: ADME, organism-based; details: in vivo, 2 h
Nucleic Acid [2] = experiment: Ratio of drug uptake in tumor to muscle in Mus musculus KM (mouse) at 3.7 MBq, iv at 30 min; type: ADME, organism-based; details: in vivo, 0.5 h
Spleen [3] = experiment: Biodistribution in tumor bearing Mus musculus KM (mouse) spleen at 3.7 MBq, iv by microPET imaging analysis; type: ADME, organism-based; details: in vivo, TDE = time-dependent effect
Brain [4] = experiment: Biodistribution in tumor bearing Mus musculus KM (mouse) brain at 3.7 MBq, iv measured at 30 min by microPET imaging analysis; type: ADME, organism-based; details: in vivo, 0.5 h
Lung [5] = experiment: Biodistribution in tumor bearing Mus musculus KM (mouse) lung at 3.7 MBq, iv measured at 60 min by microPET imaging analysis; type: ADME, organism-based; details: in vivo, 1 h
Blood [6] = experiment: Clearance in tumor-bearing Mus musculus KM (mouse) blood at 3.7 MBq, iv measured at 60 min; type: ADME, organism-based; details: in vivo, 1 h
Brain [7] = experiment: Biodistribution in tumor bearing Mus musculus KM (mouse) brain at 3.7 MBq, iv measured at 120 min by microPET imaging analysis; type: ADME, organism-based; details: in vivo, 2 h
Spleen [8] = experiment: Biodistribution in tumor bearing Mus musculus KM (mouse) spleen at 3.7 MBq, iv measured at 60 min by microPET imaging analysis; type: ADME, organism-based; details: in vivo, 1 h
Tumour [9] = experiment: Biodistribution in tumor of Mus musculus KM (mouse) at 3.7 MBq, iv measured at 5 min by microPET imaging analysis; type: ADME, organism-based, Neoplasm; details: in vivo
Lung [10] = experiment: Biodistribution in tumor bearing Mus musculus KM (mouse) lung at 3.7 MBq, iv measured at 5 min by microPET imaging analysis; type: ADME, organism-based; details: in vivo
Tumour [11] = experiment: Biodistribution in tumor of Mus musculus KM (mouse) at 3.7 MBq, iv measured at 60 min by microPET imaging analysis; type: ADME, organism-based, Neoplasm; details: in vivo, 1 h
Spleen [12] = experiment: Biodistribution in tumor bearing Mus musculus KM (mouse) spleen at 3.7 MBq, iv measured at 120 min by microPET imaging analysis; type: ADME, organism-based; details: in vivo, 2 h
Muscle tissue [13] = experiment: Biodistribution in tumor bearing Mus musculus KM (mouse) muscle at 3.7 MBq, iv by microPET imaging analysis; type: ADME, organism-based; details: in vivo, TDE = time-dependent effect
Blood [14] = experiment: Biodistribution in tumor bearing Mus musculus KM (mouse) blood at 3.7 MBq, iv measured at 60 min by microPET imaging analysis; type: ADME, organism-based; details: in vivo, 1 h
Liver [15] = experiment: Biodistribution in tumor bearing Mus musculus KM (mouse) liver at 3.7 MBq, iv measured at 60 min by microPET imaging analysis; type: ADME, organism-based; details: in vivo, 1 h
Heart [16] = experiment: Biodistribution in tumor bearing Mus musculus KM (mouse) heart at 3.7 MBq, iv measured at 60 min by microPET imaging analysis; type: ADME, organism-based; details: in vivo, 1 h
Brain [17] = experiment: Biodistribution in tumor bearing Mus musculus KM (mouse) brain at 3.7 MBq, iv by microPET imaging analysis; type: ADME, organism-based; details: in vivo, TDE = time-dependent effect
Lung [18] = experiment: Biodistribution in tumor bearing Mus musculus KM (mouse) lung at 3.7 MBq, iv measured at 120 min by microPET imaging analysis; type: ADME, organism-based; details: in vivo, 2 h
Nucleic Acid [19] = experiment: Ratio of drug uptake in tumor to muscle in Mus musculus KM (mouse) at 3.7 MBq, iv at 120 min; type: ADME, organism-based; details: in vivo, 2 h
Liver [20] = experiment: Clearance in tumor-bearing Mus musculus KM (mouse) liver at 3.7 MBq, iv measured at 60 min; type: ADME, organism-based; details: in vivo, 1 h
Muscle tissue [21] = experiment: Biodistribution in tumor bearing Mus musculus KM (mouse) muscle at 3.7 MBq, iv measured at 5 min by microPET imaging analysis; type: ADME, organism-based; details: in vivo
Kidney [22] = experiment: Biodistribution in tumor bearing Mus musculus KM (mouse) kidney at 3.7 MBq, iv measured at 5 min by microPET imaging analysis; type: ADME, organism-based; details: in vivo
Brain [23] = experiment: Biodistribution in tumor bearing Mus musculus KM (mouse) brain at 3.7 MBq, iv measured at 60 min by microPET imaging analysis; type: ADME, organism-based; details: in vivo, 1 h
Lung [24] = experiment: Biodistribution in tumor bearing Mus musculus KM (mouse) lung at 3.7 MBq, iv by microPET imaging analysis; type: ADME, organism-based; details: in vivo, TDE = time-dependent effect
Blood [25] = experiment: Biodistribution in tumor bearing Mus musculus KM (mouse) blood at 3.7 MBq, iv measured at 120 min by microPET imaging analysis; type: ADME, organism-based; details: in vivo, 2 h
Muscle tissue [26] = experiment: Biodistribution in tumor bearing Mus musculus KM (mouse) muscle at 3.7 MBq, iv measured at 120 min by microPET imaging analysis; type: ADME, organism-based; details: in vivo, 2 h
Kidney [27] = experiment: Clearance in tumor-bearing Mus musculus KM (mouse) kidney at 3.7 MBq, iv measured at 60 min; type: ADME, organism-based; details: in vivo, 1 h
Kidney [28] = experiment: Biodistribution in tumor bearing Mus musculus KM (mouse) kidney at 3.7 MBq, iv measured at 30 min by microPET imaging analysis; type: ADME, organism-based; details: in vivo, 0.5 h
Blood [29] = experiment: Biodistribution in tumor bearing Mus musculus KM (mouse) blood at 3.7 MBq, iv measured at 30 min by microPET imaging analysis; type: ADME, organism-based; details: in vivo, 0.5 h
[30] = Metabolic stability in serum after 1 hr by HPLC analysis; type: ADME
Lung [31] = experiment: Biodistribution in tumor bearing Mus musculus KM (mouse) lung at 3.7 MBq, iv measured at 30 min by microPET imaging analysis; type: ADME, organism-based; details: in vivo, 0.5 h
Nucleic Acid [32] = experiment: Ratio of drug uptake in tumor to muscle in Mus musculus KM (mouse) at 3.7 MBq, iv at 5 min; type: ADME, organism-based; details: in vivo
Kidney [33] = experiment: Biodistribution in tumor bearing Mus musculus KM (mouse) kidney at 3.7 MBq, iv measured at 15 min by microPET imaging analysis; type: ADME, organism-based; details: in vivo, 0.25 h
Heart [34] = experiment: Biodistribution in tumor bearing Mus musculus KM (mouse) heart at 3.7 MBq, iv measured at 120 min by microPET imaging analysis; type: ADME, organism-based; details: in vivo, 2 h
[35] = Chemical stability in acetonitrile at 60 degC up to 30 min by HPLC analysis; type: physicochemical; details: 0.5 h
[36] = Octanol-PBS partition coefficient of the compound at pH 7.4 by gamma counter; type: physicochemical; details: read-out: log KOW
Heart [37] = experiment: Biodistribution in tumor bearing Mus musculus KM (mouse) heart at 3.7 MBq, iv measured at 5 min by microPET imaging analysis; type: ADME, organism-based; details: in vivo
Blood [38] = experiment: Biodistribution in tumor bearing Mus musculus KM (mouse) blood at 3.7 MBq, iv measured at 15 min by microPET imaging analysis; type: ADME, organism-based; details: in vivo, 0.25 h
Heart [39] = experiment: Biodistribution in tumor bearing Mus musculus KM (mouse) heart at 3.7 MBq, iv measured at 15 min by microPET imaging analysis; type: ADME, organism-based; details: in vivo, 0.25 h
Heart [40] = experiment: Biodistribution in tumor bearing Mus musculus KM (mouse) heart at 3.7 MBq, iv measured at 30 min by microPET imaging analysis; type: ADME, organism-based; details: in vivo, 0.5 h
Liver [41] = experiment: Biodistribution in tumor bearing Mus musculus KM (mouse) liver at 3.7 MBq, iv measured at 5 min by microPET imaging analysis; type: ADME, organism-based; details: in vivo
Spleen [42] = experiment: Biodistribution in tumor bearing Mus musculus KM (mouse) spleen at 3.7 MBq, iv measured at 30 min by microPET imaging analysis; type: ADME, organism-based; details: in vivo, 0.5 h
Liver [43] = experiment: Biodistribution in tumor bearing Mus musculus KM (mouse) liver at 3.7 MBq, iv measured at 15 min by microPET imaging analysis; type: ADME, organism-based; details: in vivo, 0.25 h

## COC(=O)CNC(=O)c1ccc(OCC[18F])cc1 [[18F]FEBA]
Liver [1]
  Drug uptake: 0.68 % ID/g
Nucleic Acid [2]
  Ratio: 1.82
Spleen [3]
  Drug uptake: tde
Brain [4]
  Drug uptake: 0.51 % ID/g
Lung [5]
  Drug uptake: 0.87 % ID/g
Blood [6]
  CL: 96%
Brain [7]
  Drug uptake: 0.6 % ID/g
Spleen [8]
  Drug uptake: 0.64 % ID/g
Tumour [9]
  Drug uptake: 2.12 % ID/g
Lung [10]
  Drug uptake: 5.09 % ID/g
Tumour [11]
  Drug uptake: 1.48 % ID/g
Spleen [12]
  Drug uptake: 0.6 % ID/g
Muscle tissue [13]
  Drug uptake: tde
Blood [14]
  Drug uptake: 0.98 % ID/g
Liver [15]
  Drug uptake: 0.73 % ID/g
Heart [16]
  Drug uptake: 0.91 % ID/g
Brain [17]
  Drug uptake: tde
Lung [18]
  Drug uptake: 0.76 % ID/g
Nucleic Acid [19]
  Ratio: 1.03
Liver [20]
  CLH: 91%
Muscle tissue [21]
  Drug uptake: 2.02 % ID/g
Kidney [22]
  Drug uptake: 7.25 % ID/g
Brain [23]
  Drug uptake: 0.55 % ID/g
Lung [24]
  Drug uptake: tde
Blood [25]
  Drug uptake: 0.85 % ID/g
Muscle tissue [26]
  Drug uptake: 1.17 % ID/g
Kidney [27]
  CL: 97%
Kidney [28]
  Drug uptake: 1.77 % ID/g
Blood [29]
  Drug uptake: 1.28 % ID/g
[30]
  Stability: Stable
Lung [31]
  Drug uptake: 1.32 % ID/g
Nucleic Acid [32]
  Ratio: 1.05
Kidney [33]
  Drug uptake: 4.07 % ID/g
Heart [34]
  Drug uptake: 0.77 % ID/g
[35]
  Stability: Stable
[36]
  logD: 0.57
Heart [37]
  Drug uptake: 2.64 % ID/g
Blood [38]
  Drug uptake: 2.17 % ID/g
Heart [39]
  Drug uptake: 1.93 % ID/g
Heart [40]
  Drug uptake: 0.95 % ID/g
Liver [41]
  Drug uptake: 4.19 % ID/g
Spleen [42]
  Drug uptake: 0.79 % ID/g
Liver [43]
  Drug uptake: 2.11 % ID/g
